Legend:
[1] = Pharmacokinetic evaluation of compound in Balb/c mice; assay type: in vivo; conditions: 1 mg/kg, PO
Experimental: Sample preparation: About 0.2 mg of the compound was dissolved in 10 µL DMSO, then a sodium chloride injection was added to make a 0.1 mg·mL^-1 solution of the compound for administration.
Three mice were administered the compound intravenously (IV) at a dose of 1 mg·kg^-1, and the other three were administered the compound orally (PO) at the same dose. […] The plasma concentration of the drug was quantitatively analyzed with the LC-MS/MS method, and pharmacokinetic parameters were calculated, including the […] (Cmax), area under the concentration-time curve (AUC(0-t)), half-life (T1/2), clearance (CL), volume of distribution at steady state (Vdss), and bioavailability (F).

breast cancer MDA-MB-436 = test: In-vivo pharmacodynamic study on subcutaneous xenograft tumor model of breast cancer MDA-MB-436; design: species or system NOD/SCID mice; conditions: 100 mg/kg orally once daily
Experimental: Strain: NOD/SCID; Grade: SPF; Source: Beijing Vitron River Bio-technology Co., Ltd.
The cells were washed 3 times with pre-cooled PBS, centrifuged at 300 g for 10 min, collected, re-suspended in PBS, and counted with a blood cell counting chamber, and the cell concentration was adjusted. After cell collection, the cell suspension was pre-cooled on ice. 100 µL of the cell suspension was administered via subcutaneous injection into the dorsal flank of the mice, and the grouped treatment was started when the tumor volume reached 200-300 mm^3.
General observation: Observation of animals: all live experimental animals to be observed; Observation time: twice a day; Observation items: including but not limited to general performance, behavioral status, eyes, mouth, nose and mouth, ears, hair, stool, urine, genitalia and other toxic symptoms; If abnormalities are observed, provide a detailed description.
Animal assay: all viable experimental animals scheduled for assay; Assay time: All animals were weighed before the modeling for test grouping. After modeling, the mice were weighed once every 2 days, and the weight change of the mice was recorded in real time. Effective criteria: tumor volume (TV), relative tumor volume (RTV) and relative tumor growth rate of subcutaneously implanted tumor model. […] The calculation formula of tumor volume (TV) was: TV (mm^3) = a×b2×0.5, where a and b were the long diameter and short diameter, respectively.
The evaluation index for anti-tumor activity was the relative tumor growth rate T/C (%), and the calculation formula was as follows: T/C(%) = TRTV/CRTV × 100%; [formula]
Where, TRTV is relative tumor volume of the treatment group; CRTV is relative tumor volume of the negative control group. Therapeutic evaluation criteria: T/C (%)> 60 is considered ineffective; T/C (%) ≤ 60, and P < 0.05 (through statistical analysis) is considered effective. Measurement of tumor weight and tumor inhibition rate (%): At the end of the treatment period, the animals were euthanize, tumor masses dissected and isolated, tumors weighed, and photographs took. The tumor inhibition rate (%) was calculated by the formula below: [formula]
All raw data within the facility were collected manually according to the experimental scheme and the relevant guidelines of the research institution, or gathered by using a data acquisition system. Manually collected data can be transcribed into software such as Excel for analysis and reporting. The data from each group were quantitative, and the experimental data for each group of animals in the tables were expressed as mean ± standard deviation (Mean ± SD). In the figures, the experimental data ware described as mean ± standard error of the mean (Mean ± SEM). Statistical analysis, including t-tests and survival analysis, was performed by using the software such as EXCEL and GraphPad Prism.
After 24 days of administration, the tumor-bearing mice were anesthetized and euthanized. The tumor tissues were dissected, weighed, and photographed, and the tumor inhibition rate was calculated.

| SMILES | Vdss [1] | AUC(0-t) ([1]; male, mouse, plasma) | Cmax ([1]; male, mouse, plasma) | half-life ([1]; male, mouse, plasma) | RTV (breast cancer MDA-MB-436; 24 days) | Tumor inhibition rate (%) (breast cancer MDA-MB-436; 24 days) | Tumor volume T/C% (breast cancer MDA-MB-436; 24 days) | Tumor weight (g) X±SD (breast cancer MDA-MB-436; 24 days) | Body weight (g) X±SD End (breast cancer MDA-MB-436; End, 24 days) | Tumor volume (mm^3) X±SD End (breast cancer MDA-MB-436; End, 24 days) | Body weight (g) X±SD Start (breast cancer MDA-MB-436; Start) | Tumor volume (mm^3) X±SD Start (breast cancer MDA-MB-436; Start) |
| --- | --- | --- | --- | --- | --- | --- | --- | --- | --- | --- | --- | --- |
| [2H]C([2H])([2H])NC(=O)c1ccc(C2=CCN(Cc3cnc4cc(CC)c(=O)[nH]c4c3)CC2)c(C)n1 [Compound 8, 1'-((7-ethyl-6-oxo-5,6-dihydro-1,5-naphthyridin-3-yl)methyl)-2-methyl-N-(methyl-d3)-1',2',3', 6'-tetrahydro-[3,4'-bipyridine]-6-carboxamide] | 0.14 L/kg | 42300 ng·h/mL | 5010 ng/mL | 246 min |  |  |  |  |  |  |  |  |
| O=C(c1cc(Cc2n[nH]c(=O)c3ccccc23)ccc1F)N1CCN(C(=O)C2CC2)CC1 [Olaparib, reference compound] |  |  |  |  | 2.2 | 62.19% | 33.4% | 0.82 ± 0.39 g | 21.7 ± 1.4 g | 551.5±343.1 mm^3 | 21.9 ± 1.1 g | 250.7±70.0 mm^3 |

— EP4606801A1, “FUSED HETEROCYCLIC COMPOUND AND USE THEREOF” (Chengdu Zenitar Biomedical Technology Co., Ltd., priority 2022, dated 2024)
